The values that follow are results of earlier work, collected in patent CN117800914A, “一种抗SARS-CoV-2病毒奥密克戎突变种抑制剂” (Second Military Medical University SMMU, priority 2023, dated 2024).

In the data set the test system is COVID-19. Particulars: early use, cited from earlier work.

Each structure is given as a SMILES string.

In the case of `CCC(CC)COC(=O)[C@H](C)N[P@](=O)(OC[C@H]1O[C@@](C#N)(c2ccc3c(N)ncnn23)[C@H](O)[C@@H]1O)Oc1ccccc1` [瑞德西韦], the “reduction of risk of severe COVID-19” value was 87%.

On to `CC(C)C(=O)OC[C@H]1O[C@@H](n2ccc(NO)nc2=O)[C@H](O)[C@@H]1O` [莫那匹韦], for which the “reduction of risk of hospitalization/death (in words)” value (mild to moderate patients at risk of progression) was “可降低住院/死亡风险”.
